Results reported in ChEMBL document CHEMBL1201862, “PubChem BioAssay data set” (2004).
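Results reflect a 48-hour exposure of cells in 96-well plates to compound at five concentrations. At the GI50, growth is halved.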 The source made the active and inactive calls. Rule as the data show it: active = GI50 up to about 1.1 µM and inactive = higher.

What was measured:
Assay in all cases: NCI-60 cell line screen, 48 h
[1] = test system: SN12C
[2] = test system: SR
[3] = test system: OVCAR-4
[4] = test system: SK-MEL-28
[5] = test system: UO-31
[6] = test system: Hs-578T
[7] = test system: NCI-H23
[8] = test system: A498
[9] = test system: OVCAR-8
[10] = test system: COLO 205
[11] = test system: HCC 2998
[12] = test system: M14
[13] = test system: OVCAR-5
[14] = test system: KM12
[15] = test system: NCI-H522
[16] = test system: MDA-MB-231
[17] = test system: EKVX
[18] = test system: SK-OV-3
[19] = test system: UACC-62
[20] = test system: NCI-H226

With `C=CC(C)(O)/C=C/C=C(\C)C(CC1OC1(C)C)OC(=O)/C(C)=C\C` (stereo unspecified) the GI50 [1] was > 100 µM (inactive), the GI50 [2] was > 100 µM (inactive) and the GI50 [3] was > 100 µM (inactive). For the same compound, the GI50 [4] was > 100 µM (inactive), the GI50 [5] was > 100 µM (inactive) and the GI50 [6] was > 100 µM (inactive). For the same compound, the GI50 [7] was > 100 µM (inactive), the GI50 [8] was > 100 µM (inactive) and the GI50 [9] was > 100 µM (inactive). For the same compound, the GI50 [10] was > 100 µM (inactive), the GI50 [11] was > 100 µM (inactive) and the GI50 [12] was > 100 µM (inactive). The GI50 [13] was > 100 µM (inactive), the GI50 [14] was > 100 µM (inactive) and the GI50 [15] was > 100 µM (inactive). The GI50 [16] was > 100 µM (inactive), the GI50 [17] was > 100 µM (inactive) and the GI50 [18] was > 100 µM (inactive). The GI50 [19] was > 100 µM (inactive).

In the case of `O=C(CCCCCCCCC(=O)N1C(=O)CC(=O)N(c2cccc(Cl)c2)C1=S)N1C(=O)CC(=O)N(c2cccc(Cl)c2)C1=S`, the GI50 [1] is reported as 40.2 µM (inactive), the GI50 [2] is reported as 26.1 µM (inactive) and the GI50 [3] is reported as 37.7 µM (inactive). For the same compound, the GI50 [5] was 27.5 µM (inactive), the GI50 [6] was 19.3 µM (inactive) and the GI50 [7] was 39.7 µM (inactive). The GI50 [8] was 39.9 µM (inactive), the GI50 [9] was 34.9 µM (inactive) and the GI50 [10] was 37.3 µM (inactive). The GI50 [11] was 94.4 µM (inactive), the GI50 [12] was 38.9 µM (inactive) and the GI50 [13] was 56.6 µM (inactive). The GI50 [14] was 40.3 µM (inactive), the GI50 [15] was 16.3 µM (inactive) and the GI50 [16] was 24.6 µM (inactive). The GI50 [17] was 38.3 µM (inactive), the GI50 [18] was 42.6 µM (inactive) and the GI50 [19] was 21.9 µM (inactive).

`CC1=NN(c2cccc(Cl)c2)C2(C1=Cc1cccs1)C(Cl)C(=O)N2c1nc2ccccc2s1` (stereo unspecified) was tested, and the GI50 [2] was 18.5 µM (inactive), the GI50 [3] was 28.9 µM (inactive) and the GI50 [4] was 39.4 µM (inactive). For the same compound, the GI50 [5] was 23.9 µM (inactive), the GI50 [6] was 27.4 µM (inactive) and the GI50 [7] was 21.3 µM (inactive). For the same compound, the GI50 [8] was 21.8 µM (inactive), the GI50 [9] was 20.4 µM (inactive) and the GI50 [11] was 17 µM (inactive). For the same compound, the GI50 [12] was 34.8 µM (inactive), the GI50 [13] was 18.2 µM (inactive) and the GI50 [20] was 24.3 µM (inactive). For the same compound, the GI50 [14] was 28.7 µM (inactive), the GI50 [15] was 18.5 µM (inactive) and the GI50 [16] was 19.7 µM (inactive). The GI50 [17] was 19.5 µM (inactive).

In the case of `Cc1cc2nn(C3CCCO3)nc2cc1C` (stereo unspecified), the GI50 [1] is reported as > 100 µM (inactive), the GI50 [2] is reported as > 100 µM (inactive) and the GI50 [3] is reported as > 100 µM (inactive). The GI50 [6] was > 100 µM (inactive), the GI50 [7] was > 100 µM (inactive) and the GI50 [8] was > 100 µM (inactive). For the same compound, the GI50 [9] was > 100 µM (inactive), the GI50 [10] was > 100 µM (inactive) and the GI50 [11] was > 100 µM (inactive). The GI50 [12] was > 100 µM (inactive), the GI50 [13] was > 100 µM (inactive) and the GI50 [20] was > 100 µM (inactive). For the same compound, the GI50 [15] was > 100 µM (inactive), the GI50 [16] was > 100 µM (inactive) and the GI50 [17] was > 100 µM (inactive). The GI50 [18] was > 100 µM (inactive) and the GI50 [19] was > 100 µM (inactive).

For `CC1=C(C#N)C2C(=C(C)N1)C(N)=Nc1ccccc12` (stereo unspecified), the GI50 [1] was 38.5 µM (inactive), the GI50 [2] was 41.1 µM (inactive) and the GI50 [3] was 37.4 µM (inactive). For the same compound, the GI50 [4] was 63.4 µM (inactive), the GI50 [6] was 23 µM (inactive) and the GI50 [7] was 55.2 µM (inactive). The GI50 [8] was 22.3 µM (inactive), the GI50 [9] was 55.6 µM (inactive) and the GI50 [10] was 42.8 µM (inactive). The GI50 [11] was 35.2 µM (inactive), the GI50 [12] was 36.4 µM (inactive) and the GI50 [13] was 70.5 µM (inactive). The GI50 [20] was 30 µM (inactive), the GI50 [14] was 27.6 µM (inactive) and the GI50 [15] was 30.8 µM (inactive). For the same compound, the GI50 [16] was 31.8 µM (inactive), the GI50 [17] was 19.1 µM (inactive) and the GI50 [18] was 76.4 µM (inactive). For the same compound, the GI50 [19] was 25.8 µM (inactive).

With `CC[C@@]1(O)C(=O)OCc2c1cc1n(c2=O)Cc2c-1nc1ccccc1c2/C=N/NC(=O)c1ccc(N)cc1` the GI50 [1] was 0.0543 µM (active), the GI50 [2] was < 0.01 µM (active) and the GI50 [3] was 3.73 µM (inactive). For the same compound, the GI50 [4] was 0.263 µM (active), the GI50 [5] was 0.258 µM (active) and the GI50 [6] was > 100 µM (inactive). For the same compound, the GI50 [7] was 0.0798 µM (active), the GI50 [8] was 0.33 µM (active) and the GI50 [9] was 0.0944 µM (active). For the same compound, the GI50 [10] was 4.53 µM (inactive), the GI50 [11] was 1.12 µM (inactive) and the GI50 [12] was 0.0585 µM (active). The GI50 [13] was 5.22 µM (inactive), the GI50 [20] was 0.04 µM (active) and the GI50 [14] was 9.4 µM (inactive). The GI50 [15] was < 0.0405 µM (active), the GI50 [16] was 3.06 µM (inactive) and the GI50 [18] was 0.158 µM (active). For the same compound, the GI50 [19] was 0.0208 µM (active).

For `COC(=O)C1=C(C)NC(C)=C(C(=O)OC)C1c1nc2sccn2c1[N+](=O)[O-]`, the GI50 [1] was > 100 µM (inactive), the GI50 [2] was > 100 µM (inactive) and the GI50 [3] was > 100 µM (inactive). The GI50 [4] was > 100 µM (inactive), the GI50 [5] was > 100 µM (inactive) and the GI50 [6] was > 100 µM (inactive). For the same compound, the GI50 [7] was > 100 µM (inactive), the GI50 [8] was > 100 µM (inactive) and the GI50 [9] was 79.4 µM (inactive). The GI50 [10] was > 100 µM (inactive), the GI50 [11] was > 100 µM (inactive) and the GI50 [12] was > 100 µM (inactive). For the same compound, the GI50 [13] was > 100 µM (inactive), the GI50 [20] was > 100 µM (inactive) and the GI50 [14] was > 100 µM (inactive). The GI50 [16] was > 100 µM (inactive), the GI50 [17] was 96.4 µM (inactive) and the GI50 [18] was > 100 µM (inactive). For the same compound, the GI50 [19] was > 100 µM (inactive).

`CC1(c2ccc(Cl)cc2)CC(c2ccc(Cl)cc2)=C(C#N)C(=C(C#N)C#N)N1` (stereo unspecified) was tested, and the GI50 [1] was 15 µM (inactive), the GI50 [2] was 11.5 µM (inactive) and the GI50 [3] was 14.8 µM (inactive). The GI50 [4] was 32.7 µM (inactive), the GI50 [5] was 16.3 µM (inactive) and the GI50 [6] was 19.9 µM (inactive). For the same compound, the GI50 [7] was 17.3 µM (inactive), the GI50 [8] was 18.5 µM (inactive) and the GI50 [9] was 14.9 µM (inactive). For the same compound, the GI50 [10] was 12.8 µM (inactive), the GI50 [11] was 13.2 µM (inactive) and the GI50 [12] was 18.5 µM (inactive). The GI50 [13] was 25.8 µM (inactive), the GI50 [20] was 18.5 µM (inactive) and the GI50 [14] was 19.9 µM (inactive). The GI50 [16] was 22.5 µM (inactive), the GI50 [17] was 17.9 µM (inactive) and the GI50 [18] was 16.9 µM (inactive). The GI50 [19] was 15.3 µM (inactive).
